These are literature values, as cited in patent US20120016021A1, “METHODS OF TREATING FRAGILE X SYNDROME, DOWN'S SYNDROME, AUTISM AND RELATED DISORDERS” (XENOPORT, INC., priority 2010, published 2012).

The conditions of series [1]: animal models.
Series [2] deals with Fmr1^/− animals.
The test system of series [3] is Fmr1 KO mice. The following applies: low doses (1 mg/kg), audiogenically induced seizures.
The conditions of series [4]: administered orally.
The subject of series [5] is autistic children.

Take `NCC(CC(=O)O)c1ccc(Cl)cc1` (racemic) [baclofen, 4-amino-3-(4-chlorophenyl)butanoic acid]: the “absorption following administration into the colon” value in series [1] is recorded as “poorly absorbed”. Also, the locomotor activity entry in series [2] (baclofen at 3 mg/kg, Fmr1^/− animals) was “inhibits locomotor activity”. Besides, the “dose needed for comparable locomotor suppression in animals reared by Fmr1^+/+ mothers versus Fmr1^/− animals” value in series [2] (relative to 3 mg/kg) is recorded as 2 fold. In addition, the seizure incidence entry in series [3] is given as “significantly inhibits seizure incidence”. Also, the elimination half-life in series [4] is 3 to 4 h.

On to `Cc1nc2n(c(=O)c1CCN1CCC(c3noc4cc(F)ccc34)CC1)CCCC2` [risperidone], for which the “social isolation and communication” value in series [5] is listed as “not improved”. Moreover, the “irritability subscale of the Aberrant Behavior Checklist and Clinical Global Impressions-Improvement” value in series [5] (placebo-controlled) is “significant improvement”.
